Experimental data taken from patent US10051861B2, “N-arylamidine-substituted trifluoroethyl sulfide derivatives as acaricides and insecticides” (BAYER CROPSCIENCE AG, priority 2011, dated 2018).
Where two headings read alike, the source gives them in different places. Marks after values point to notes of the source that are not given here.

Key:
[1] = logP by HPLC on reversed-phase columns (C 18), EEC Directive 79/831 Annex V.A8; format: physicochemical; details: for chromatographic logP: reversed-phase C18 HPLC column; for logP(HCOOH): pH 2.7; for logP(neutral): pH 7.8
Procedure: Calibration is carried out using unbranched alkan-2-ones (having from 3 to 16 carbon atoms) with known log P values (the log P values are determined by the retention times using linear interpolation between two successive alkanones).

Boophilus microplus = Boophilus microplus test (BOOPMI injection); format: in vivo; set-up: dose or concentration left out as unconfirmed; details: after 7 days
Procedure: (§1) Solvent: dimethyl sulfoxide
The solution of active compound is injected into the abdomen (Boophilus microplus), and the animals are transferred into dishes and kept in a climatized room. The activity is assessed by laying of fertile eggs.
100% means that none of the ticks has laid any fertile eggs.

[2] = system: cattle ticks (Boophilus microplus); assay: Boophilus microplus injection test (BOOPMI Inj); format: in vivo; details: application rate 20 μg/animal, injection, after 7 days; for pest or weed control at 0.02 mg: Rhipicephalus microplus, 168 h, read-out: efficacy (laying of fertile eggs)
Procedure: as §1
1 μl of the active compound solution is injected into the abdomen of 5 engorged adult female cattle ticks (Boophilus microplus). The animals are transferred into dishes and kept in a climate-controlled room.
The activity is assessed after 7 days by laying of fertile eggs. Eggs whose fertility is not visible from the outside are stored in a climate-controlled cabinet until the larvae hatch after about 42 days. An efficacy of 100% means that none of the ticks has laid any fertile eggs; 0% means that all eggs are fertile.

[3] = system: greenhouse red spider mite (Tetranychus urticae); assay: Tetranychus urticae spray test, OP-resistant (TETRUR), bean leaf disks; format: in vivo; details: application rate 500 g/ha, after 6 days; for pest or weed control at 500 g/ha: Tetranychus urticae, foliar, 144 h, read-out: efficacy (spider mites killed)
Procedure: (§2) After 6 days, the effect in % is determined.

[4] = system: greenhouse red spider mite (Tetranychus urticae); assay: Tetranychus test, OP-resistant (TETRUR spray treatment); format: in vivo; details: application rate 500 g/ha, after 6 days
Procedure: as §2

[5] = system: larvae of the mustard beetle (Phaedon cochleariae); assay: Phaedon test (PHAECO spray treatment); details: application rate 500 g/ha, after 7 days
[6] = system: larvae of the mustard beetle (Phaedon cochleariae); assay: Phaedon cochleariae spray test (PHAECO); details: for effect (beetle larvae killed): application rate 500 g/ha, after 7 days
[7] = pH 2.7, [a] LC-MS, acidic range, pH 2.7, 0.1% aqueous formic acid/acetonitrile, read-out: logP(HCOOH)
[8] = pH 7.8, [b] LC-MS, neutral range, pH 7.8, 0.001 molar aqueous ammonium bicarbonate/acetonitrile, read-out: logP(neutral)

| Structure (SMILES) | logP(HCOOH) [1] | logP(neutral) [1] | efficacy (spider mites killed) [4] [%] | efficacy (spider mites killed) [3] [%] | also measured |
| --- | --- | --- | --- | --- | --- |
| Cc1cc(F)c(/N=C(/N(C)C)C(F)(F)F)cc1SCC(F)(F)F [Ia-01, 2,2,2-Trifluoro-N′-{2-fluoro-4-methyl-5-[(2,2,2-trifluoroethyl)sulfanyl]phenyl}-N,N-dimethylethanimidamide] |  |  |  |  | chromatographic logP [1, 7]: 4.48; chromatographic logP [1, 8]: 4.5; efficacy (laying of fertile eggs) (Boophilus microplus): 100%; pest or weed control at 0.02 mg [2]: 100%; pest or weed control at 500 g/ha [3]: 100% |
| CCCNC(=Nc1cc(SCC(F)(F)F)c(C)cc1F)C(F)(F)F [Ia-02] | 4.45 | 4.43 | 100 | 100 | efficacy (beetle larvae killed) [5]: 100%; effect (beetle larvae killed) [6]: 100% |
| Cc1cc(F)c(N=C(N)C(F)F)cc1SCC(F)(F)F [Ia-03] |  |  | 100 | 100 | log P ([1]; pH 2.3): 2.2^[c] |
| Cc1cc(F)c(N=C(NCc2ccccn2)C(F)(F)F)cc1SCC(F)(F)F [Ia-04] | 3.68^[a] |  |  | 100 | efficacy (laying of fertile eggs) (Boophilus microplus): 80%; efficacy (laying of fertile eggs) [2]: 80%; efficacy (beetle larvae killed) [5]: 100%; effect (beetle larvae killed) [6]: 100% |
| Cc1cc(F)c(N=C(NC(C)C)C(F)(F)F)cc1SCC(F)(F)F [Ia-05] | 4.51 | 4.52 | 100 | 100 | efficacy (beetle larvae killed) [5]: 100%; effect (beetle larvae killed) [6]: 100% |
| CNC(=Nc1cc(SCC(F)(F)F)c(F)cc1C)C(F)(F)F [Ia-09] | 3.72 | 3.69 | 80 | 80 |  |
| CNC(=Nc1cc(SCC(F)(F)F)c(C)cc1C)C(F)(F)F [Ia-12] | 3.95 | 4.01 | 100 | 100 |  |
| NC(=Nc1cc(SCC(F)(F)F)c(Cl)cc1Cl)C(F)(F)F [Ia-14] |  |  |  | 100 | efficacy (beetle larvae killed) [5]: 100%; effect (beetle larvae killed) [6]: 100% |
| CNC(=Nc1cc(SCC(F)(F)F)c(Cl)cc1Cl)C(F)(F)F [Ia-15] | 4.2^[a]; 4.2^[b] | 4.2^[a]; 4.2^[b] | 100 | 100 | efficacy (beetle larvae killed) [5]: 100%; effect (beetle larvae killed) [6]: 100% |
| Cc1cc(F)c(SCC(F)(F)F)cc1N=C(N)C(F)(F)F [Ia-17] | 3.16 | 3.14 | 80 | 80 |  |
| CCNC(=Nc1cc(SCC(F)(F)F)c(C)cc1F)C(F)(F)F [Ia-18] | 4.12^[a]; 4.12^[b] | 4.12^[a]; 4.12^[b] | 100 | 100 | efficacy (beetle larvae killed) [5]: 100%; effect (beetle larvae killed) [6]: 100% |
| CNC(=Nc1ccc(C(F)(F)F)c(SCC(F)(F)F)c1)C(F)(F)F [Ia-19] |  |  |  | 100 | efficacy (beetle larvae killed) [5]: 100%; effect (beetle larvae killed) [6]: 100% |
| Cc1cc(F)c(N=C(N)C(F)(F)C(F)(F)C(F)(F)C(F)(F)C(F)(F)C(F)F)cc1SCC(F)(F)F [Ia-22] |  |  |  | 100 | efficacy (laying of fertile eggs) (Boophilus microplus): 100%; efficacy (laying of fertile eggs) [2]: 100% |
| Cc1cc(C)c(SCC(F)(F)F)cc1N=C(N(C)C)C(F)(F)F [Ia-23] | 4.87^[a]; 4.87^[b] | 4.87^[a]; 4.87^[b] | 100 | 100 |  |
| Cc1cc(F)c(N=C(NC2CC2)C(F)(F)F)cc1SCC(F)(F)F [Ia-26] | 4.03 | 4.02 | 100 | 100 |  |
| Cc1cc(F)c(/N=C(/N(C)C)C(F)(F)F)cc1[S+]([O-])CC(F)(F)F (stereo not shown) [Ib-01, 2,2,2-Trifluoro-N′-{2-fluoro-4-methyl-5-[(2,2,2-trifluoroethyl)sulfinyl]phenyl}-N,N-dimethylethanimidamide] |  |  |  |  | chromatographic logP [1, 7]: 3.15; efficacy (laying of fertile eggs) (Boophilus microplus): 100%; pest or weed control at 0.02 mg [2]: 100%; pest or weed control at 500 g/ha [3]: 90% |
| Cc1cc(F)c(N=C(NC(C)C)C(F)(F)F)cc1[S+]([O-])CC(F)(F)F (stereo not shown) [Ib-03] |  |  | 100 | 100 | efficacy (laying of fertile eggs) [2]: 100% |
| CNC(=Nc1cc([S+]([O-])CC(F)(F)F)c(C)cc1C)C(F)(F)F (stereo not shown) [Ib-04] | 3.15 | 3.09 | 80 | 80 |  |
| CNC(=Nc1cc([S+]([O-])CC(F)(F)F)c(F)cc1C)C(F)(F)F (stereo not shown) [Ib-05] | 2.86 | 2.79 | 80 | 80 |  |
| CCCNC(=Nc1cc([S+]([O-])CC(F)(F)F)c(C)cc1F)C(F)(F)F (stereo not shown) [Ib-06] | 3.24 | 3.17 | 100 | 100 |  |
| CNC(=Nc1cc([S+]([O-])CC(F)(F)F)c(C)cc1F)C(F)(F)F (stereo not shown) [Ib-07] | 2.64 | 2.61 | 100 | 100 | efficacy (laying of fertile eggs) [2]: 100% |
| Cc1cc(F)c(/N=C(/NC2CC2)C(F)(F)F)cc1[S+]([O-])CC(F)(F)F (stereo not shown) [Ib-08] | 2.68 | 2.67 | 100 | 100 |  |
| Cc1cc(C)c([S+]([O-])CC(F)(F)F)cc1N=C(N(C)C)C(F)(F)F (stereo not shown) [Ib-09] | 3.23 | 3.19 | 100 | 100 |  |
| Cc1cc(C)c([S+]([O-])CC(F)(F)F)cc1/N=C(/N)C(F)(F)F (stereo not shown) [Ib-12] | 3.36 | 3.3 | 100 | 100 | efficacy (laying of fertile eggs) [2]: 100% |
| Cc1cc(F)c([S+]([O-])CC(F)(F)F)cc1/N=C(/N)C(F)(F)F (stereo not shown) [Ib-13] |  |  | 100 | 100 |  |
| Cc1cc(F)c([S+]([O-])CC(F)(F)F)cc1N=C(N(C)C)C(F)(F)F (stereo not shown) [Ib-15] | 2.17 | 2.14 | 100 | 100 |  |
| N/C(=N/c1ccc(Cl)c([S+]([O-])CC(F)(F)F)c1)C(F)(F)F (stereo not shown) [Ib-108, N′-{4-Chloro-3-[(2,2,2-trifluoroethyl)sulfinyl]phenyl}-2,2,2-trifluoroethanimidamide] |  |  |  |  | chromatographic logP [1, 7]: 2.25; chromatographic logP [1, 8]: 2.21; pest or weed control at 0.02 mg [2]: 100%; pest or weed control at 500 g/ha [3]: 100%; pest or weed control at 500 g/ha ([6]; Phaedon cochleariae, 168 h, read-out: effect (beetle larvae killed)): 83% |
